Laboratory results published in publication PMC3220932 (Pulmonary pharmacology & therapeutics, 2011).

Columns and labels:
[1] = test system: human airway epithelial cells; assay: Cellular drug uptake by airway epithelial cells; conditions: 37°C, 15 min; for cellular uptake in airway epithelial cells: 200 nmol/l [3H]-formoterol or [3H]-salmeterol
[2] = test system: human bronchial smooth muscle cells; assay: Cellular drug uptake by bronchial smooth muscle cells; conditions: 37°C, 15 min; for cellular uptake in smooth muscle cells: 200 nmol/l [3H]-formoterol or [3H]-salmeterol
[3] = test system: human bronchial smooth muscle cells; assay type: cell-based; conditions: for IC50: read-out: IC50 for rapidly inhibiting formoterol uptake by human bronchial smooth muscle cells, 200 nmol/l [3H]-formoterol, mean, n = 6
[4] = test system: human airway epithelial cells; assay: Corticosteroid effect on tritiated drug uptake by airway epithelial cells; assay type: cell-based; conditions: 5 μmol/l
OCT3 = target: T1, OCT3 (Homo sapiens, UniProt O75751); conditions: bronchial smooth muscle cells, OCT3 targeted shRNA
T1 sequence (O75751 1-556): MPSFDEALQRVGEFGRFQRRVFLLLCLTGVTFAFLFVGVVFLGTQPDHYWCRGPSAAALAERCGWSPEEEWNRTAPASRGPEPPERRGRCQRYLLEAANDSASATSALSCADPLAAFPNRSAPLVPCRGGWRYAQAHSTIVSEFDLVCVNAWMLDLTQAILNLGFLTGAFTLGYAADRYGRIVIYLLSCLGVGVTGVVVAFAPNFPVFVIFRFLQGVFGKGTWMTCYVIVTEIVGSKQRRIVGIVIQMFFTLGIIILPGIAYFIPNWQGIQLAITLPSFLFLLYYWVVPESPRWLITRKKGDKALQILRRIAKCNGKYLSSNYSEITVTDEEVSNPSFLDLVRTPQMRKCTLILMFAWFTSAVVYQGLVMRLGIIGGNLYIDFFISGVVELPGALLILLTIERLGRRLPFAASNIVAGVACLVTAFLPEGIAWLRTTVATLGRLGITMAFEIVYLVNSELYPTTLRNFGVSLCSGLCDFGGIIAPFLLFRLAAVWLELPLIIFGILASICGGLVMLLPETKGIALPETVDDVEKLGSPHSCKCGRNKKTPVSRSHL

## COc1ccc(CC(C)NCC(O)c2ccc(O)c(NC=O)c2)cc1 (stereo not shown) [formoterol]
[1]
  cellular uptake in airway epithelial cells: 8.9 ± 0.5 pmol/mg protein/15 min
[2]
  cellular uptake in smooth muscle cells: 28.1 ± 1.6 pmol/mg protein/15 min

## OCc1cc(C(O)CNCCCCCCOCCCCc2ccccc2)ccc1O (stereo not shown) [salmeterol]
[1]
  cellular uptake in airway epithelial cells: 46.6 ± 1.9 pmol/mg protein/15 min
[2]
  cellular uptake in smooth muscle cells: 306.9 ± 13.3 pmol/mg protein/15 min

## CCC(=O)O[C@]1(C(=O)SCF)[C@H](C)C[C@H]2[C@@H]3C[C@H](F)C4=CC(=O)C=C[C@]4(C)[C@@]3(F)[C@@H](O)C[C@@]21C [Fluticasone propionate]
[3]; 15-min incubation
  IC50: 6.29 µM

## CCC(=O)O[C@]1(C(=O)CO)[C@@H](C)C[C@H]2[C@@H]3CCC4=CC(=O)C=C[C@]4(C)[C@@]3(Cl)[C@@H](O)C[C@@]21C [Beclomethasone 17-monopropionate]
[3]; 15-min incubation
  IC50: 4.04 µM

## C[C@]12C[C@H](O)[C@H]3[C@@H](CCC4=CC(=O)CC[C@@]43C)[C@@H]1CC[C@@H]2C(=O)CO [Corticosterone]
[3]; 5 μM, 100 μM actinomycin D added 60 min prior to transport measurements
  action on formoterol uptake in presence of transcription inhibitor actinomycin D: insensitive
[3]; 5 μmol/l, 15-min incubation
  effect on MPP+ uptake by bronchial smooth muscle cells: significantly reduced
[3]; 5 μmol/l, 15 min
  effect on salmeterol uptake in bronchial smooth muscle cells: insensitive to corticosterone
[3]; 5 μmol/l, bronchial smooth muscle cells
  inhibitory action on formoterol uptake after pretreatment for 45 or 90 min: not enhanced
[4]; 15-min incubation
  effect on MPP+ uptake by airway epithelial cells: but not airway epithelial cells
[4]; 15 min
  effect on salmeterol uptake in epithelial cells: insensitive to corticosterone
  rapid inhibitory effect on formoterol uptake in epithelial cells: not in epithelial cells
OCT3
  inhibitory effect on formoterol uptake under OCT3 mRNA suppression: reduces

## C[n+]1ccc(-c2ccccc2)cc1 [MPP^+, N-methyl-4-phenylpyridinium]
[1]; 5 nmol/l [3H]-MPP+
  cellular uptake of MPP+ in epithelial cells: 0.18 ± 0.03 pmol/mg protein/15 min
[2]; 5 nmol/l [3H]-MPP+
  cellular uptake of MPP+ in smooth muscle cells: 0.21 ± 0.02 pmol/mg protein/15 min
